Drawing on ChEMBL document CHEMBL5257109, “Development of actein derivatives as potent anti-triple negative breast cancer agents” (Bioorg Med Chem Lett, 2023), this text covers IC50, inhibition and Activity for 4 compounds.

Activity calls are given as the source filed them. The calls are words filed in the database; no cut-off is given here. Some results are limits rather than exact numbers.

Assay [1] has as its system HCC1806. The experiment in a line: Antiproliferative activity against human HCC1806 cells assessed as inhibition of cell growth incubated for 36 hrs by SRB assay. In kind it is functional, cell-based. Particulars: HCC1806, 36 h. For orientation: The SRB assay estimates cell density from bound dye.
The test system of assay [2] is HCC1806. The experiment in a line: Antiproliferative activity against human HCC1806 cells assessed as inhibition of cell growth at 20 uM incubated for 36 hrs by SRB assay relative to control. In kind it is functional.
Assay [3] relates to MDA-MB-231. The experiment in a line: Antiproliferative activity against human MDA-MB-231 cells assessed as inhibition of cell growth incubated for 36 hrs by SRB assay. In kind it is functional, cell-based. The note with it: MDA-MB-231, 36 h.
Assay [4] deals with MDA-MB-231. The experiment in a line: Antiproliferative activity against human MDA-MB-231 cells assessed as inhibition of cell growth at 20 uM incubated for 36 hrs by SRB assay relative to control. In kind it is functional.
The subject of assay [5] is HCC1806. The assay is described as follows: Induction of cell death in human HCC1806 cells assessed as activation of p38 protein incubated for 36 hrs by Western blot analysis. In kind it is functional, cell-based. Particulars: dose 10-20 µM. Background: In western blotting, separated proteins are transferred to a membrane and probed.
The test system of assay [6] is HCC1806. The experiment in a line: Induction of cell cycle arrest in human HCC1806 cells assessed as decrease in G2/M phase cells at 10 uM incubated for 36 hrs by PI staining based flow cytometric analysis. The format is functional.
Assay [7] has as its system HCC1806. The experiment in a line: Induction of cell cycle arrest in human HCC1806 cells assessed as increase in S phase cells at 10 uM incubated for 36 hrs by PI staining based flow cytometric analysis. In kind it is functional.
Assay [8] has as its system HCC1806. The assay is described as follows: Induction of cell death in human HCC1806 cells assessed as increase in p21 expression incubated for 36 hrs by Western blot analysis. The format is functional, cell-based. The note with it: dose 10-20 µM.
Another assay concerns MCF7. The assay is described as follows: Antiproliferative activity against human MCF7 cells assessed as inhibition of cell growth incubated for 96 hrs by coulter counter analysis. In kind it is functional, cell-based. The note with it: MCF7, 96 h.
The test system of assay [9] is MDA-MB-231. The assay is described as follows: Antiproliferative activity against human MDA-MB-231 cells overexpressing ERnegative and […] assessed as inhibition of cell growth incubated for 96 hrs by coulter counter analysis. The format is functional, cell-based. The note with it: MDA-MB-231, 96 h.
In assay [10] the test system is MDA-MB-231. The assay is described as follows: Antiproliferative activity against human MDA-MB-231 cells assessed as inhibition of cell growth. In kind it is functional, cell-based.

Turning to `CC(=O)O[C@@H]1[C@@H](OC(C)=O)[C@H](O[C@H]2CC[C@]34C[C@]35C[C@@H](OC(C)=O)[C@]3(C)[C@H]6[C@H](C)C[C@]7(OC(O)[C@@]8(C)O[C@@H]78)O[C@H]6C[C@@]3(C)[C@@H]5CC[C@H]4C2(C)C)OC[C@H]1OC(C)=O` (stereo partly specified), the IC50 (commonly the point on the concentration scale where inhibition reaches its midpoint) was 3.42 µM in the assay with HCC1806 [1] and > 20 µM with MDA-MB-231 [3]. The inhibition at 20 µM in the assay on HCC1806 [2] and in the assay on MDA-MB-231 [4] was > 50% in each case.
In the case of `CC(=O)O[C@@H]1[C@@H](OC(C)=O)[C@H](O[C@H]2CC[C@]34C[C@]35CC(=O)[C@]3(C)[C@H]6[C@H](C)C[C@]7(OC(O)[C@@]8(C)O[C@@H]78)O[C@H]6C[C@@]3(C)[C@@H]5CC[C@H]4C2(C)C)OC[C@H]1OC(C)=O` (stereo partly specified), the IC50 is 8.8 µM in the assay with HCC1806 [1] and 13 µM in the assay on MDA-MB-231 [3]. Moreover, the inhibition at 20 µM with HCC1806 [2] and in the assay on MDA-MB-231 [4] was > 50% each time.
Take `CC(=O)O[C@@H]1[C@@H](OC(C)=O)[C@H](O[C@H]2CC[C@]34C[C@]35C[C@@H](OC(C)=O)[C@]3(C)[C@H]6[C@H](C)C[C@]7(O[C@@H](OC(=O)CCC(=O)O)[C@@]8(C)O[C@@H]78)O[C@H]6C[C@@]3(C)[C@@H]5CC[C@H]4C2(C)C)OC[C@H]1OC(C)=O`: the half-maximal inhibitory concentration (IC50) in the assay on HCC1806 [1] came to 2.78 µM; in the assay with MDA-MB-231 [3] it was 9.11 µM. Besides, the inhibition at 20 µM with HCC1806 [2] and in the assay with MDA-MB-231 [4] was > 50% in each case. For the same compound, the Activity entry in the assay with HCC1806 [5] and in the assay on HCC1806 [8] was “Dose-Dependent Effect” throughout. Moreover, the result with HCC1806 [6] and in the assay on HCC1806 [7] was Active.
With `CC(=O)O[C@@H]1C[C@@]23C[C@@]24CC[C@H](O[C@@H]2OC[C@@H](O)[C@H](O)[C@H]2O)C(C)(C)[C@@H]4CC[C@H]3[C@]2(C)C[C@@H]3O[C@]4(C[C@@H](C)[C@@H]3[C@@]12C)O[C@H](O)[C@@]1(C)O[C@@H]41` [ACTEIN], the IC50 in the assay with HCC1806 [1] is > 20 µM; in the assay with MCF7, 14 µM; in the assay on MDA-MB-231 [3], > 20 µM; in the assay with MDA-MB-231 [9], 74 µM; with MDA-MB-231 [10] it was 60 µM.
